According to patent US8501713B2, “Drug combinations for the treatment of duchenne muscular dystrophy” (Summit Corporation PLC, priority 2007, dated 2013):

Tested on: Utrophin A promoter linked to a luciferase reporter gene
Assay: Luciferase reporter assay (murine H2K cells)
Assay type: cell-based
Settings: luciferase reporter assay in murine H2K cells; classified relative to control
Procedure, shortened: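 Immortalized mdx mouse H2K myoblasts stably carrying a ~5 kb utrophin A promoter–luciferase construct, kept at 33° C, 10% CO2. After 24 hrs plating, compound added at 10 μM final for 48 hrs; luciferase light output read after in-situ lysis.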

Compound | Activity
Clc1ccc(-c2nc3cc(CN4CCCCC4)ccc3o2)cc1 [Example 469] | + (Up to 200% relative to control)
COc1ccc(-c2nc3ccccc3[nH]2)cc1 [Example 470] | ++ (Between 201% and 300% relative to control)
c1ccc(OCc2nc3ccccc3[nH]2)cc1 [Example 471] | ++ (Between 201% and 300% relative to control)
Cn1c(-c2ccc([N+](=O)[O-])cc2)nc2ccccc21 [Example 472] | + (Up to 200% relative to control)
COc1ccc(OCc2nc3ccccc3[nH]2)cc1 [Example 473] | ++ (Between 201% and 300% relative to control)
Cn1c(COc2ccccc2)nc2ccccc21 [Example 474] | + (Up to 200% relative to control)
Nc1ccc(-c2nc3ccccc3[nH]2)cc1 [Example 475] | + (Up to 200% relative to control)
Nc1ccc2nc(-c3ccc(-c4nc5ccc(N)cc5[nH]4)cc3)[nH]c2c1 [Example 476] | + (Up to 200% relative to control)
O=[N+]([O-])c1ccc(-c2nc3ccccc3o2)cc1 [Example 477] | + (Up to 200% relative to control)
Nc1ccc(-c2nc3ccccc3o2)cc1 [Example 478] | ++ (Between 201% and 300% relative to control)
Cc1ccc(-c2nc3ccccc3s2)cc1N [Example 479] | ++ (Between 201% and 300% relative to control)
Nc1ccc2oc(-c3ccc(Cl)c(Cl)c3)nc2c1 [Example 480] | ++ (Between 201% and 300% relative to control)
CCc1ccc(-c2nc3cc(N)ccc3o2)cc1 [Example 481] | ++ (Between 201% and 300% relative to control)
Cc1cc(C)cc(-c2nc3cc(N)ccc3o2)c1 [Example 482] | + (Up to 200% relative to control)
Oc1ccccc1-c1nc2ccccc2s1 [Example 483] | + (Up to 200% relative to control)
Nc1ccc(-c2nc3ccccc3o2)c(O)c1 [Example 484] | ++ (Between 201% and 300% relative to control)
Cc1cc2nc(-c3ccc(N)cc3)oc2cc1C [Example 485] | ++ (Between 201% and 300% relative to control)
CN(C)c1ccc(-c2nc3ccccc3o2)cc1 [Example 486] | + (Up to 200% relative to control)
Nc1ccc2oc(-c3ccc(Cl)cc3)nc2c1 [Example 488] | ++ (Between 201% and 300% relative to control)
Nc1ccc2oc(-c3cccc(Cl)c3)nc2c1 [Example 489] | ++ (Between 201% and 300% relative to control)
Cn1c(-c2ccc(N)cc2)nc2cc(N)ccc21 [Example 490] | + (Up to 200% relative to control)
CN(C)c1ccc(-c2nc3cc(N)ccc3o2)cc1 [Example 491] | ++ (Between 201% and 300% relative to control)
O=[N+]([O-])c1ccc2oc(-c3ccccc3)nc2c1 [Example 492] | ++ (Between 201% and 300% relative to control)
O=C(Cc1cccs1)Nc1ccc(-c2nc3ccccc3[nH]2)cc1 [Example 493] | + (Up to 200% relative to control)
COc1ccc(C(=O)Nc2ccc(-c3nc4ccccc4[nH]3)cc2)cc1OC [Example 494] | + (Up to 200% relative to control)
Clc1ccc(OCc2nc3ccccc3[nH]2)cc1 [Example 495] | + (Up to 200% relative to control)

Compound | Activity
Nc1ccc2oc(-c3ccc(O)cc3)nc2c1 [Example 496] | ++ (Between 201% and 300% relative to control)
O=C(Nc1ccc(-c2nc3ccccc3[nH]2)cc1)c1ccccc1 [Example 497] | + (Up to 200% relative to control)
CN(C)c1ccc(-c2nc3ccccc3[nH]2)cc1 [Example 498] | + (Up to 200% relative to control)
COCc1nc2ccccc2[nH]1 [Example 499] | + (Up to 200% relative to control)
O=C(Nc1ccccc1-c1nc2ccccc2[nH]1)c1ccc(Cl)cc1Cl [Example 500] | + (Up to 200% relative to control)
O=C(Cc1ccccc1)Nc1ccc(-c2nc3ccccc3[nH]2)cc1 [Example 501] | + (Up to 200% relative to control)
CCc1ccc2oc(-c3cccc(N)c3)nc2c1 [Example 502] | ++ (Between 201% and 300% relative to control)
CC(=O)Nc1cccc(-c2nc3ccccc3[nH]2)c1 [Example 503] | + (Up to 200% relative to control)
O=C(Nc1cccc(-c2nc3ccccc3[nH]2)c1)c1cccs1 [Example 504] | + (Up to 200% relative to control)
Cc1ccc2oc(-c3ccc([N+](=O)[O-])cc3)nc2c1 [Example 505] | ++ (Between 201% and 300% relative to control)
Cc1ccc2nc(-c3ccc(N)cc3)oc2c1 [Example 506] | + (Up to 200% relative to control)
Fc1ccccc1-c1nc2ccccc2[nH]1 [Example 507] | ++ (Between 201% and 300% relative to control)
O=[N+]([O-])c1ccc2[nH]c(-c3ccco3)nc2c1 [Example 508] | + (Up to 200% relative to control)
CN(C)c1ccc(-c2nc3cc([N+](=O)[O-])ccc3[nH]2)cc1 [Example 509] | ++ (Between 201% and 300% relative to control)
Cl.Cl.Nc1ccc2[nH]c(-c3ccco3)nc2c1 [Example 510] | + (Up to 200% relative to control)
O=C(Nc1ccccc1-c1nc2ccccc2[nH]1)c1ccc(S(=O)(=O)N2CCCC2)cc1 [Example 511] | + (Up to 200% relative to control)
COc1ccc(-c2nc3cc(N)ccc3o2)cc1 [Example 512] | + (Up to 200% relative to control)
CC(=O)Nc1cccc(-c2nc3ccccc3s2)c1 [Example 513] | + (Up to 200% relative to control)
Clc1cccc(-c2nc3ccccc3[nH]2)c1 [Example 514] | + (Up to 200% relative to control)
COc1ccc(-c2nc3cc(N)ccc3o2)cc1OC [Example 515] | ++ (Between 201% and 300% relative to control)
O=S(=O)(c1ccc(-c2nc3ccccc3s2)cc1)N1CCCCC1 [Example 516] | ++ (Between 201% and 300% relative to control)
CC(=O)Nc1ccc2oc(-c3ccc(Cl)cc3Cl)nc2c1 [Example 517] | ++ (Between 201% and 300% relative to control)
Nc1ccc(-c2nc3cc(Cl)cc(Cl)c3o2)cc1 [Example 518] | ++ (Between 201% and 300% relative to control)
COc1ccc(-c2nc3cc(NC(C)=O)ccc3o2)cc1Cl [Example 519] | ++ (Between 201% and 300% relative to control)
COc1ccc(-c2nc3cc([N+](=O)[O-])ccc3[nH]2)cc1OC [Example 520] | + (Up to 200% relative to control)
COc1ccc(-c2nc3ccccc3n2C)cc1OC [Example 521] | + (Up to 200% relative to control)

Compound | Activity
COc1ccccc1-c1nc2ccccc2s1 [Example 522] | + (Up to 200% relative to control)
O=[N+]([O-])c1cc(-c2nc3ccccc3s2)ccc1Cl [Example 523] | + (Up to 200% relative to control)
O=[N+]([O-])c1ccc(Cl)c(-c2nc3ccccc3s2)c1 [Example 524] | + (Up to 200% relative to control)
O=[N+]([O-])c1ccc2oc(-c3ccc(F)cc3)nc2c1 [Example 525] | + (Up to 200% relative to control)
Cc1ccc(-c2nc3cc(N)ccc3o2)cc1Cl [Example 526] | ++ (Between 201% and 300% relative to control)
Cc1ccc(-c2nc3cc(N)ccc3o2)c(Cl)c1 [Example 527] | ++ (Between 201% and 300% relative to control)
COc1ccc(OCc2nc3ccccc3n2C)cc1 [Example 528] | ++ (Between 201% and 300% relative to control)
CC(=O)Nc1ccc(-c2nc3cc(C)cc(C)c3o2)cc1 [Example 529] | ++ (Between 201% and 300% relative to control)
c1ccc(-c2nnc(SCc3nc4ccccc4[nH]3)o2)cc1 [Example 530] | + (Up to 200% relative to control)
Cc1ccc(OCc2nc3ccccc3[nH]2)cc1 [Example 531] | ++ (Between 201% and 300% relative to control)
Cc1ccc2[nH]c(-c3ccc(N)cc3)nc2c1 [Example 532] | + (Up to 200% relative to control)
Cc1cccc(-c2nc3cc([N+](=O)[O-])ccc3o2)c1 [Example 533] | ++ (Between 201% and 300% relative to control)
CC(=O)Nc1ccc2[nH]c(-c3ccco3)nc2c1 [Example 534] | + (Up to 200% relative to control)
COc1ccc(-c2nc3cc(N)ccc3[nH]2)cc1 [Example 535] | ++ (Between 201% and 300% relative to control)
Cc1ccc(S(=O)(=O)Nc2ccc3[nH]c(-c4ccco4)nc3c2)cc1 [Example 536] | + (Up to 200% relative to control)
COc1ccc(-c2nc3cc([N+](=O)[O-])ccc3o2)cc1OC [Example 537] | + (Up to 200% relative to control)
Cc1ccc2nc(-c3cccc(NC(=O)c4ccco4)c3)[nH]c2c1 [Example 538] | + (Up to 200% relative to control)
Cc1cc(-c2nc3cc(Cl)ccc3o2)ccc1[N+](=O)[O-] [Example 539] | + (Up to 200% relative to control)
O=C(Nc1ccc(-c2nc3ccccc3[nH]2)cc1)c1ccc2c(c1)OCO2 [Example 540] | + (Up to 200% relative to control)
Cn1c(-c2ccc(Cl)cc2)nc2ccccc21 [Example 541] | ++ (Between 201% and 300% relative to control)
COc1ccc(-c2nc3ccccc3s2)cc1NC(C)=O [Example 542] | ++ (Between 201% and 300% relative to control)
CSc1ccc(-c2nc3ccccc3[nH]2)cc1 [Example 543] | ++ (Between 201% and 300% relative to control)
Nc1ccc(-c2nc3ccc(N)cc3o2)cc1 [Example 544] | ++ (Between 201% and 300% relative to control)
Cc1ccc2nc(-c3ccc(NC(=O)c4ccccc4C(=O)O)cc3)sc2c1 [Example 545] | + (Up to 200% relative to control)
C(=C\c1nc2ccccc2[nH]1)/c1ccccc1 [Example 547] | +++ (Between 301% and 400% relative to control)
